Source: ChEMBL document CHEMBL1136073, “2,4-Dicarboxy-pyrroles as selective non-competitive mGluR1 antagonists: further characterization of 3,5-dimethyl pyrrole-2,4-dicarboxylic acid 2-propyl ester 4-(1,2,2-trimethyl-propyl) ester and structure-activity relationships” (Bioorg Med Chem Lett, 2003)

These compounds were tested against T1, Metabotropic glutamate receptor 1 (Rattus norvegicus, UniProt P23385) (assay: In vitro inhibition of rat metabotropic glutamate receptor 1 in CHO cells using the CDP-DAG accumulation method.).
T1 sequence (P23385 whole entry): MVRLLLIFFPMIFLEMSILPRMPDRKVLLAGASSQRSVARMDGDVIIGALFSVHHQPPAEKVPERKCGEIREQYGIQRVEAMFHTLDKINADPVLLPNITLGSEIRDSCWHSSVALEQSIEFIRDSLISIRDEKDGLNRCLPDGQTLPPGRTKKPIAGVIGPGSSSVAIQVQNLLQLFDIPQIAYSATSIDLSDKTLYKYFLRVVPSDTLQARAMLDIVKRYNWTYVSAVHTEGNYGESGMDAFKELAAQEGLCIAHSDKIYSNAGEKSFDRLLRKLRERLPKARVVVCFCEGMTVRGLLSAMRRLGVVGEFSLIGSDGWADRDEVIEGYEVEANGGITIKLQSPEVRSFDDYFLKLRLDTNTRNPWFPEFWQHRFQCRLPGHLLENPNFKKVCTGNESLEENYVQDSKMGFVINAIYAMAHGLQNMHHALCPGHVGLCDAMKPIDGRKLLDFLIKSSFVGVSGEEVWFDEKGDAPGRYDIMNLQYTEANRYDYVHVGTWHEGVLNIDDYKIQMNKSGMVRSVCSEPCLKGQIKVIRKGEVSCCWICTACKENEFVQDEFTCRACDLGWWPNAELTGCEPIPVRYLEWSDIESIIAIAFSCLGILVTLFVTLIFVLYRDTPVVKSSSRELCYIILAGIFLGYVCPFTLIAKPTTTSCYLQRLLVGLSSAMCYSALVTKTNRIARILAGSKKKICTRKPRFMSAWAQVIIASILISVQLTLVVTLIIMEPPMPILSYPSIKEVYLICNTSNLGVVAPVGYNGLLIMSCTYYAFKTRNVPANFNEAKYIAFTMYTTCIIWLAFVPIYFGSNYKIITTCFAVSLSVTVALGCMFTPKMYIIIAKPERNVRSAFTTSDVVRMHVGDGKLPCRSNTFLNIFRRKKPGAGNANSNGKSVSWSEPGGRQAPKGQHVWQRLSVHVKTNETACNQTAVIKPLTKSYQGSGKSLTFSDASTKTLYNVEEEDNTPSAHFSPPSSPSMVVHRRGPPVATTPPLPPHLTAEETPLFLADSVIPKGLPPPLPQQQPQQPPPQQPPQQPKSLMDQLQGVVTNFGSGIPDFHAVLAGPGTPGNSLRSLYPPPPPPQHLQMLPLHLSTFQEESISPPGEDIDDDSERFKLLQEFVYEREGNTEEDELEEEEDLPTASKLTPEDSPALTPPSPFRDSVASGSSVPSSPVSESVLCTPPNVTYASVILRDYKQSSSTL
Type: cell-based

SMILES | IC50
Cc1c(C(=O)OC(C)C(C)(C)C)c[nH]c1C(=O)Oc1c(F)c(F)c(F)c(F)c1F (stereo unspecified) | 0.16 µM
CCCOC(=O)c1[nH]c(C(=O)Sc2ccccn2)c(C(=O)OC(C)(C)C)c1C | 3.2 µM
CCCOC(=O)c1[nH]c(C)c(C(=O)OC(C)C(C)(C)C)c1C (stereo unspecified) | 15.8 µM
CCCOC(=O)c1[nH]c(COC(C)=O)c(C(=O)OC(C)(C)C)c1C | 2.7 µM
CCCOC(=O)c1[nH]c(Cl)c(C(=O)OC(C)C(C)(C)C)c1C (stereo unspecified) | 0.16 µM
C=CCOC(=O)Cn1c(C)c(C(=O)OC(C)(C)C)c(C)c1C(=O)OCCC | 12.6 µM
CCCOC(=O)c1[nH]c(C(=O)OC)c(C(=O)OC(C)(C)C)c1C | 3.2 µM
Cc1c(C(=O)OC(C)C(C)(C)C)c[nH]c1C(=O)Oc1ccncn1 (stereo unspecified) | 1.45 µM
CCCOC(=O)c1c(C)c(C(=O)OC(C)(C)C)c(C)n1CCCO | 5.8 µM
Cc1c(C(=O)OC(C)C(C)(C)C)c[nH]c1C(=O)Oc1cccnc1 (stereo unspecified) | 0.72 µM

Further lines, results first:

IC50 | SMILES
0.004 µM | CCCOC(=O)c1[nH]cc(C(=O)OC(C)C(C)(C)C)c1C (stereo unspecified)
0.1 µM | Cc1c(C(=O)OC(C)(C)C)c[nH]c1C(=O)OC(C)(C)C
0.048 µM | Cc1c(C(=O)OC(C)(C)C)c[nH]c1C(=O)OCC1CC1
0.34 µM | CCOC(=O)c1[nH]cc(C(=O)OC(C)(C)C)c1C
0.017 µM | Cc1c(C(=O)OC(C)C(C)(C)C)c[nH]c1C(=O)OC(C)(C)C (stereo unspecified)
2.5 µM | CCCOC(=O)c1[nH]c(C(=O)NCC2CC2)c(C(=O)OC(C)(C)C)c1C
1.2 µM | Cc1c(C(=O)OC(C)(C)C)c[nH]c1C(=O)OCc1ccco1
3 µM | Cc1c(C(=O)OC(C)(C)C)c[nH]c1C(=O)Sc1ccccn1
2 µM | CCCOC(=O)c1[nH]c(C=O)c(C(=O)OC(C)(C)C)c1C
0.26 µM | CCN1CCC(OC(=O)c2[nH]cc(C(=O)OC(C)C(C)(C)C)c2C)C1 (stereo unspecified)
0.39 µM | Cc1c(C(=O)OC(C)C(C)(C)C)c[nH]c1C(=O)OC(C)CN(C)C (stereo unspecified)
7.9 µM | CCCOC(=O)c1[nH]c(CO)c(C(=O)OC(C)(C)C)c1C
0.075 µM | CCCOC(=O)c1[nH]cc(C(=O)OC(C)(C)C)c1C

Each compound was assayed against T1, Metabotropic glutamate receptor 1 (assay: In vitro inhibition of rat Metabotropic glutamate receptor 1 in CHO cells using the CDP-DAG accumulation method: Not active uM).
Type: cell-based

SMILES | IC50
CCCOC(=O)c1c(C)c(C(=O)OC(C)(C)C)c(C)n1CCCO[Si](c1ccccc1)(c1ccccc1)C(C)(C)C | Not Active
CCCOC(=O)c1[nH]c(CNCc2ccccc2)c(C(=O)OC(C)(C)C)c1C | Not Active
CCCOC(=O)c1c(C)c(C(=O)OC(C)(C)C)c(C)n1CC(=O)O | Not Active
CCCOC(=O)c1c(C)c(C(=O)OC(C)(C)C)c(C)n1CN1CCCCC1 | Not Active
CCCOC(=O)c1[nH]c(C(=O)O)c(C(=O)OC(C)(C)C)c1C | Not Active
CCCOC(=O)c1c(C)c(C(=O)OC(C)(C)C)c(C)n1CCO[Si](c1ccccc1)(c1ccccc1)C(C)(C)C | Not Active
CCCOC(=O)c1c(C)c(C(=O)OC(C)(C)C)c(C)n1CC(=O)N(C)C | Not Active

Continued, values first:

IC50 | SMILES
Not Active | Cc1c(C(=O)OC(C)(C)C)c[nH]c1C(=O)O
Not Active | CCCOC(=O)c1[nH]c(CN)c(C(=O)OC(C)(C)C)c1C

What follows are compounds tested against T1, Metabotropic glutamate receptor 1 (assay: In vitro inhibitory concentration required against rat mGluR1a in CHO cells using the CDP-DAG accumulation method: Not active uM).
Type: cell-based

IC50 | SMILES
Not Active | C=CCN1CCN(CCn2c(C)c(C(=O)OC(C)(C)C)c(C)c2C(=O)OCCC)CC1
Not Active | CCCOC(=O)c1c(C)c(C(=O)OC(C)(C)C)c(C)n1CCN1CCOCC1

These compounds were tested against T1, Metabotropic glutamate receptor 1 (assay: In vitro inhibitory concentration required against rat mGluR1a in CHO cells using the CDP-DAG accumulation method).
Type: cell-based

IC50 | SMILES
1 µM | CCCOC(=O)c1c(C)c(C(=O)OC(C)(C)C)c(C)n1C
2.3 µM | CCCOC(=O)c1c(C)c(C(=O)OC(C)(C)C)c(C)n1C(=O)OC(C)(C)C
